# Measured values taken from patent US20240174680A1, “CDK2 INHIBITORS AND METHODS OF USING THE SAME” (Cedilla Therapeutics, Inc., priority 2021, published 2024).
# Target: CDK2/Cyclin E1 (Homo sapiens, UniProt P24941)
# Assay: CDK2/Cyclin E1 Caliper LabChip EZ Reader mobility shift assay
# Assay type: biochemical
# Design: purchased Eurofins 14-475
# Settings: read-out: Caliper Assay (CDK2/CCNE1): IC50
# How it was run: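 Mobility-shift kinase assay: compound titrations preincubated 30 min with enzyme and ATP, reaction started with 5-FAM-QSPKKG-CONH2 peptide. Final 2.5 nM CDK2/Cyclin E1, 100 μM ATP, 1.5 μM peptide, HEPES pH 7.5; stopped with EDTA after 100 min. IC50 from four-parameter fit of normalized conversion ratio.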
row,SMILES,IC50
1,CNC(=O)[C@@H](NC(=O)[C@@H]1CN(C(=O)c2sc(C)nc2C)CC12CN(C(=O)[C@H]1CC1(C)C)C2)[C@@H](C)OCC1CCCCC1 [I-213A],10 to 100 nM
2,CNC(=O)[C@@H](NC(=O)[C@H]1CN(C(=O)c2cnc(C)s2)CC12CN(C(=O)[C@H]1CC1(C)C)C2)[C@@H](C)OCC1CCCCC1 [I-156B],> 10000 nM
3,CC1(C)C[C@@H]1C(=O)N1CC2(CN(C(=O)c3cnn(Cc4ccccc4)c3)C[C@H]2C(=O)N[C@@H]2CC[C@@H]2O)C1 [I-201B],> 10000 nM
4,CO[C@H]1COCC[C@H]1NC(=O)[C@H]1CN(C(=O)c2cnn(Cc3ccccc3)c2)CC12CN(C(=O)[C@H]1CC1(C)C)C2 [I-134B],> 10000 nM
5,CNC(=O)[C@@H](NC(=O)[C@@H]1CN(C(=O)c2cncs2)CC12CN(C(=O)[C@H]1CC1(C)C)C2)[C@@H](C)OCC1CCCCC1 [I-129A],10 to 100 nM
6,CC1(C)C[C@@H]1C(=O)N1CC2(CN(C(=O)c3cnn(Cc4ccccc4)c3)C[C@@H]2C(=O)N[C@H]2CCc3cc(Cl)ccc32)C1 [I-120B],1000 to 10000 nM
7,"CNC(=O)[C@@H](NC(=O)[C@@H]1CN(C(=O)c2cnn(Cc3ccccc3)c2)CC12CN(C(=O)[C@H]1CC1(C)C)C2)[C@@H](C)O [I-88A, (S)-6-(1-benzyl-1H-pyrazole-4-carbonyl)-2-((S)-2,2-dimethylcyclopropane-1-carbonyl)-N-((2S,3R)-3-hydroxy-1-(methylamino)-1-oxobutan-2-yl)-2,6-diazaspiro[3.4]octane-8-carboxamide]",> 10000 nM
8,CNC(=O)[C@@H](NC(=O)[C@H]1CN(C(=O)c2cnn(CC3CCOCC3)c2)CC12CN(C(=O)[C@H]1CC1(C)C)C2)[C@@H](C)OCC1CCCCC1 [I-121B],1000 to 10000 nM
9,CO[C@H]1COCC[C@H]1NC(=O)[C@@H]1CN(C(=O)c2cnn(Cc3ccccc3)c2)CC12CN(C(=O)[C@H]1CC1(C)C)C2 [I-134A],> 10000 nM
10,CNC(=O)[C@@H](NC(=O)[C@@H]1CN(C(=O)c2cnn(Cc3ccccc3)c2)CC12CN(C(=O)[C@H]1CC1(C)C)C2)[C@@H](C)OCC1(C(F)(F)F)CC1 [I-205A],100 to 1000 nM
11,CC1(C)C[C@@H]1C(=O)N1CC2(CN(C(=O)c3cnn(Cc4ccccc4)c3)C[C@H]2C(=O)N[C@H]2CCCN(C(=O)c3ccccc3)C2)C1 [I-83A],1000 to 10000 nM
12,CNC(=O)[C@@H](NC(=O)[C@@H]1CN(C(=O)c2cnn(Cc3ccccc3)c2)CC12CN(C(=O)C1(C#N)CC1)C2)[C@@H](C)OCc1ccccc1 [I-73A],1000 to 10000 nM
13,CNC(=O)[C@@H](NC(=O)[C@H]1CN(C(=O)c2cnn(Cc3ccccc3)c2)CC12CN(C(=O)c1ccccc1)C2)[C@@H](C)OCc1ccccc1 [I-26B],> 10000 nM
14,CNC(=O)[C@@H](NC(=O)[C@H]1CN(Cc2cnc[nH]2)CC12CN(C(=O)[C@H]1CC1(C)C)C2)[C@@H](C)OCc1ccccc1 [I-77B],> 10000 nM
15,CNC(=O)[C@@H](NC(=O)[C@H]1CN(C(=O)c2cnn(Cc3ccccc3)c2)CC12CN(C(=O)CC(C)C)C2)[C@@H](C)OCc1ccccc1 [I-69B],> 10000 nM
16,CCCC(=O)N1CC2(C1)CN(C(=O)c1cnn(Cc3ccccc3)c1)C[C@@H]2C(=O)N[C@H](C(=O)NC)[C@@H](C)OCc1ccccc1 [I-60B],> 10000 nM
17,CNC(=O)[C@@H](NC(=O)[C@H]1CN(C(=O)c2sc(Cl)nc2Cl)CC12CN(C(=O)[C@H]1CC1(C)C)C2)[C@@H](C)OCC1CCCCC1 [I-232B],1000 to 10000 nM
18,CNC(=O)[C@@H](NC(=O)[C@@H]1CN(C(=O)c2cnn(Cc3ccccc3)c2)CC12CN(C(=O)C1(C(F)(F)F)CC1)C2)[C@@H](C)OCc1ccccc1 [I-108A],100 to 1000 nM
19,C[C@@H](OCC1CCC(F)(F)CC1)[C@H](NC(=O)[C@@H]1CN(C(=O)c2cn[nH]c2)CC12CN(C(=O)[C@H]1CC1(C)C)C2)C(=O)N1CCC(F)(F)CC1 [I-228A],≤ 10 nM
20,CNC(=O)[C@@H](NC(=O)[C@H]1CN(C(=O)c2cnn(Cc3ccccc3)c2)CC12CN(C(=O)[C@H]1CC1(C)C)C2)[C@@H](C)OCC(C)(C)C [I-130B],100 to 1000 nM
21,CNC(=O)[C@H](COCc1ccccc1)NC(=O)[C@@H]1CN(C(=O)c2cnn(Cc3ccccc3)c2)CC12CN(C(=O)C(C)(C)C)C2 [I-100A],1000 to 10000 nM
22,CNC(=O)[C@@H](NC(=O)[C@H]1CN(C(=O)c2scnc2C2CC2)CC12CN(C(=O)[C@H]1CC1(C)C)C2)[C@@H](C)OCC1CCCCC1 [I-185B],> 10000 nM
23,CNC(=O)[C@@H](NC(=O)[C@H]1CN(C(=O)c2cnn(Cc3ccccc3)c2)CC12CN(C(=O)[C@H]1CC1(C)C)C2)[C@@H](C)OCC1CCC1 [I-144B],1000 to 10000 nM
24,CNC(=O)[C@@H](NC(=O)[C@H]1CN(Cc2ccncc2)CC12CN(C(=O)[C@H]1CC1(C)C)C2)[C@@H](C)OCc1ccccc1 [I-55B],> 10000 nM
25,"CNC(=O)[C@@H](NC(=O)[C@@H]1CN(C(=O)c2cnn(Cc3ccccc3)c2)CC12CN(C(=O)C1(C)CC1)C2)[C@@H](C)OCc1ccccc1 [I-67A, (S)-6-(1-benzyl-1H-pyrazole-4-carbonyl)-N-((2S,3R)-3-(benzyloxy)-1-(methylamino)-1-oxobutan-2-yl)-2-(1-methylcyclopropane-1-carbonyl)-2,6-diazaspiro[3.4]octane-8-carboxamide]",100 to 1000 nM
26,CNC(=O)[C@@H](NC(=O)[C@@H]1CN(C(=O)c2cnc(C(C)(C)C)s2)CC12CN(C(=O)[C@H]1CC1(C)C)C2)[C@@H](C)OCC1CCCCC1 [I-229A],> 10000 nM
27,CNC(=O)[C@@H](NC(=O)[C@H]1CN(C(=O)c2cnn(Cc3ccccc3)c2)CC12CN(C(=O)C(C)(C)C)C2)[C@@H](C)OCc1ccccc1 [I-65B],> 10000 nM
28,CCC(CC)C(=O)N1CC2(CN(C(=O)c3cnn(Cc4ccccc4)c3)C[C@H]2C(=O)N[C@H](C(=O)NC)[C@@H](C)OCc2ccccc2)C1 [I-74A],1000 to 10000 nM
29,CC1(C)C[C@@H]1C(=O)N1CC2(CN(C(=O)c3cnn(Cc4ccccc4)c3)C[C@@H]2C(=O)N[C@@H]2CC[C@@H]2O)C1 [I-201A],> 10000 nM

# Further lines, results first:
row,IC50,SMILES
1,≤ 10 nM,"C[C@@H](OCC12CCC(CC1)OC2)[C@H](NC(=O)[C@@H]1CN(C(=O)c2cncs2)CC12CN(C(=O)[C@H]1CC1(C)C)C2)C(=O)N1CCC(C(F)(F)F)CC1 [I-454, (S)—N-((2S,3R)-3-((2-oxabicyclo[2.2.2]octan-4-yl)methoxy)-1-oxo-1-(4-(trifluoromethyl)piperidin-1-yl)butan-2-yl)-2-((S)-2,2-dimethylcyclopropane-1-carbonyl)-6-(thiazole-5-carbonyl)-2,6-diazaspiro[3.4]octane-8-carboxamide]"
2,1000 to 10000 nM,CC(C)(O)C(NC(=O)[C@@H]1CN(C(=O)c2cncs2)CC12CN(C(=O)C(C)(C)C1CC1)C2)c1cccc(C2CCOCC2)n1 (stereo partly shown) [I-339]
3,1000 to 10000 nM,CC1(C)C[C@@H]1C(=O)N1CC2(CN(C(=O)c3cncs3)C[C@H]2C(=O)NC(c2cccc(C3CCOCC3)n2)C2CCCO2)C1 (stereo partly shown) [I-497]
4,> 10000 nM,CNC(=O)[C@@H](NC(=O)[C@H]1CN(Cc2n[nH]c3ccccc23)CC12CN(C(=O)[C@H]1CC1(C)C)C2)[C@@H](C)OCc1ccccc1 [I-143]
5,1000 to 10000 nM,C[C@@H](OCC1CCCCC1)[C@H](NC(=O)C1CN(C(=O)C2CCC(=O)N(C)C2)CC12CN(C(=O)[C@H]1CC1(C)C)C2)C(=O)N1CCCCC1 (stereo partly shown) [I-242]
6,1000 to 10000 nM,CN(C(=O)[C@@H]1CCCN(C(=O)[C@@H]2CN(C(=O)c3cnn(Cc4ccccc4)c3)CC23CN(C(=O)[C@H]2CC2(C)C)C3)C1)C1CCCCC1 [I-181]
7,≤ 10 nM,C[C@@H](OCC1CCCCC1)[C@H](NC(=O)[C@@H]1CN(C(=O)c2cnn(Cc3ccccc3)c2)CC12CN(C(=O)[C@H]1CC1(C)C)C2)C(N)=O [I-200]
8,≤ 10 nM,COC[C@H]1CCCN(C(=O)[C@@H](NC(=O)[C@@H]2CN(C(=O)c3cncs3)CC23CN(C(=O)[C@H]2CC2(C)C)C3)[C@@H](C)OCc2ccc(C(F)(F)F)cc2)C1 [I-319]
9,1000 to 10000 nM,CNC(=O)[C@H](CS(=O)(=O)Cc1ccccc1)NC(=O)[C@@H]1CN(C(=O)c2cnn(Cc3ccccc3)c2)CC12CN(C(=O)[C@H]1CC1(C)C)C2 [I-226]
10,≤ 10 nM,COC[C@H]1CCCN(C(=O)[C@@H](NC(=O)[C@@H]2CN(C(=O)c3cncs3)CC23CN(C(=O)[C@H]2CC2(C)C)C3)[C@@H](C)OCC2CCC3(CCC3)CC2)C1 [I-390]
11,100 to 1000 nM,CNC(=O)[C@@H](NC(=O)[C@@H]1CN(C(=O)c2cnn(Cc3ccccc3)c2)CC12CN(C(=O)[C@H]1CC1(C)C)C2)[C@@H](C)SCc1ccccc1 [I-368]
12,≤ 10 nM,C[C@@H](OCC1CCCCC1)[C@@H](COC1CCCNC1)NC(=O)[C@@H]1CN(C(=O)c2cncs2)CC12CN(C(=O)[C@H]1CC1(C)C)C2 (stereo partly shown) [I-332]
13,> 10000 nM,CNC(=O)[C@@H](CO)NC(=O)C1CN(C(=O)c2cnn(Cc3ccccc3)c2)CC12CN(C(=O)[C@H]1CC1(C)C)C2 (stereo partly shown) [I-261]
14,> 10000 nM,COCC1(NC(=O)[C@H]2CN(C(=O)c3cnn(Cc4ccccc4)c3)CC23CN(C(=O)[C@H]2CC2(C)C)C3)CC1 [I-250]
15,100 to 1000 nM,"CC1(C)C[C@@H]1C(=O)N1CC2(CN(C(=O)c3cnn(Cc4ccccc4)c3)C[C@H]2C(=O)Nc2ccc(Cc3ccccc3)nc2)C1 [I-139, (S)-6-(1-benzyl-1H-pyrazole-4-carbonyl)-N-(6-benzylpyridin-3-yl)-2-((S)-2,2-dimethylcyclopropane-1-carbonyl)-2,6-diazaspiro[3.4]octane-8-carboxamide]"
16,≤ 10 nM,C[C@@H](OCC12CCC(CC1)OC2)[C@H](NC(=O)[C@@H]1CN(C(=O)c2cncs2)CC12CN(C(=O)[C@H]1CC1(C)C)C2)C(=O)N1CCC[C@H](COC(F)(F)F)C1 [I-460]
17,10 to 100 nM,C[C@@H](OCc1ccccc1)[C@H](NC(=O)C1CN(C(=O)c2cnn(Cc3ccccc3)c2)CC12CN(C(=O)[C@H]1CC1(C)C)C2)C(=O)N1CCNCC1 (stereo partly shown) [I-32]
18,100 to 1000 nM,CNC(=O)[C@@H](NC(=O)[C@@H]1CN(C(=O)c2cnn(Cc3ccccc3)c2)CC12CN(C(=O)[C@H]1CC1(C)C)C2)[C@@H](C)OC[C@H]1CC[C@H](O)CC1 [I-413]
19,100 to 1000 nM,CC1(C)C[C@@H]1C(=O)N1CC2(CN(C(=O)c3cncs3)C[C@H]2C(=O)NC(CO)c2cccc(C3CCC(F)(F)CC3)n2)C1 (stereo partly shown) [I-419]
20,1000 to 10000 nM,C[C@@H](OCC1CCCCC1)[C@H](NC(=O)C1CN(C(=O)C2CCC(=O)NC2)CC12CN(C(=O)[C@H]1CC1(C)C)C2)C(=O)N1CCCCC1 (stereo partly shown) [I-265]
